From patent US8269014B2, “Thiophene analogues for the treatment or prevention of flavivirus infections” (Vertex Pharmaceuticals (Canada) Incorporated, priority 2006, dated 2012) come the findings set out here.

Molecules are shown by their SMILES.

Data set [1] deals with HCV replicon cells (Huh-7 ET cells). Type of data set: cell-based, human. Particulars: Ratio of CC50/IC50 in HCV replicon cells (Huh-7 ET cells); average TI when tested more than once. (In general: A replicon is a self-replicating genome or part of one, used to study replication in cells.)
Data set [2] can be described thus: Stability in human and rat microsomes. Particulars: human and rat hepatic microsomes; relative to compound E / other thiophene analogues. It counts as in vitro ADME. As for the experimental part: Incubations containing no NADPH and no UDPGA are used as controls. The compounds are incubated at 50 uM for 0 and 60 minutes. The reaction is stopped by the addition of an equal volume of acetonitrile. The mixture is centrifuged and the supernatant is analyzed by HPLC/UV or MS/MS. The percentage parent remaining corresponds to the area of the parent compound in the 60-minute incubation versus the area of the parent compound in a 0-minute incubation ×100.

Another data set relates to CYP3A4. Kind of data set: Induction in cultured human hepatocytes (CYP3A4 activity and mRNA). Type of data set: in vitro ADME. To be noted: relative to compound E / other thiophene analogues.

As to `CC1CCC(C(=O)N(c2cc(-c3ccccc3)sc2C(=O)O)C2CCC(n3cncn3)CC2)CC1` (stereo not shown) [G, reference compound], the TI result in data set [1] is given as “+++ (+++: 1000-2000)”. For `CC1CCC(C(=O)N(c2cc(-c3ccccc3)sc2C(=O)O)C2CCC(F)CC2)CC1` (stereo not shown) [H, reference compound], the TI entry in data set [1] is on record as “+ (+: <100)”. For the molecule `COC1CCC(N(C(=O)C2CCC(C)CC2)c2cc(-c3ccccc3)sc2C(=O)O)CC1` (stereo not shown) [C, reference compound], the TI result in data set [1] was “+ (+: <100)”. Consider `CC(C)(C)C#Cc1cc(N(C(=O)[C@H]2CC[C@H](C)CC2)[C@H]2CC[C@H](F)CC2)c(C(=O)O)s1` [Compound 9, 5-(3,3-DIMETHYL-BUT-1-YNYL)-3-[(TRANS-4-FLUORO-CYCLOHEXYL)-(TRANS-4-METHYL-CYCLOHEXANECARBONYL)-AMINO]-THIOPHENE-2-CARBOXYLIC ACID], for which, in data set [1], the TI entry is “++++++ (++++++: >6000)”. In the case of `CC1CCC(C(=O)N(c2cc(C#CC(C)(C)C)sc2C(=O)O)C2CCC(n3ccnn3)CC2)CC1` (stereo not drawn) [Compound 7, 5-(3,3-DIMETHYL-BUT-1-YNYL)-3-[(TRANS-4-METHYL-CYCLOHEXANECARBONYL)-(4-CIS-[1,2,3]TRIAZOL-1-YL-CYCLOHEXYL)-AMINO]-THIOPHENE-2-CARBOXYLIC ACID], the TI result in data set [1] is “+++++ (+++++: 4000-6000)”. `CC(C)(C)C#Cc1cc(N(C(=O)[C@H]2CC[C@H](C)CC2)[C@H]2CC[C@H](n3ccnn3)CC2)c(C(=O)O)s1` [Compound 8, 5-(3,3-DIMETHYL-BUT-1-YNYL)-3-[(TRANS-4-METHYL-CYCLOHEXANECARBONYL)-(TRANS-4-[1,2,3]TRIAZOL-1-YL-CYCLOHEXYL)-AMINO]-THIOPHENE-2-CARBOXYLIC ACID]: the TI result in data set [1] is given as “++++++ (++++++: >6000)”. With `CC1CCC(C(=O)N(c2cc(-c3ccccc3)sc2C(=O)O)C(C)C)CC1` (stereo not shown) [A, reference compound], the TI result in data set [1] is recorded as “++ (++: 100-1000)”. As for `CC1CCC(C(=O)N(c2cc(C#CC(C)(C)C)sc2C(=O)O)C(C)C)CC1` (stereo not shown) [E, reference compound], the TI result in data set [1] is “+++ (+++: 1000-2000)”.

Turning to `CC(C)(C)C#Cc1cc(N(C(=O)[C@H]2CC[C@H](C)CC2)[C@H]2CC[C@@H](O)CC2)c(C(=O)O)s1` [Compound 5, 5-(3,3-DIMETHYL-BUT-1-YNYL)-3-[(CIS-4-HYDROXY-CYCLOHEXYL)-(TRANS-4-METHYL-CYCLOHEXANECARBONYL)-AMINO]-THIOPHENE-2-CARBOXYLIC ACID], the TI entry in data set [1] is given as “++++++ (++++++: >6000)”. Consider `CC(C)(C)C#Cc1cc(N(C(=O)[C@H]2CC[C@H](C)CC2)[C@H]2CC[C@@H](n3cncn3)CC2)c(C(=O)O)s1` [Compound 3, 5-(3,3-DIMETHYL-BUT-1-YNYL)-3-[(TRANS-4-METHYL-CYCLOHEXANECARBONYL)-(CIS-4-[1,2,4]TRIAZOL-1-YL-CYCLOHEXYL)-AMINO]-THIOPHENE-2-CARBOXYLIC ACID], for which the TI result in data set [1] is on record as “++++++ (++++++: >6000)”. As for `CC1CCC(C(=O)N(c2cc(-c3ccccc3)sc2C(=O)O)C2CCC(n3ccnn3)CC2)CC1` (stereo not shown) [F, reference compound], the TI entry in data set [1] is given as “++ (++: 100-1000)”. Take `CO[C@H]1CC[C@H](N(c2cc(C#CC(C)(C)C)sc2C(=O)O)C(=O)[C@H]2CC[C@H](C)CC2)CC1` [Compound 2, 5-(3,3-DIMETHYL-BUT-1-YNYL)-3-[(TRANS-4-METHOXY-CYCLOHEXYL)-(TRANS-4-METHYL-CYCLOHEXANECARBONYL)-AMINO]-THIOPHENE-2-CARBOXYLIC ACID]: in data set [1], the TI result is on record as “+++ (+++: 1000-2000)”. Moreover, the microsome stability profile result in data set [2] was “better”. Moreover, the “induction profile in human hepatocytes” value in the data set on CYP3A4 is on record as “better”.

Take `CC(C)(C)C#Cc1cc(N(C(=O)[C@H]2CC[C@H](C)CC2)[C@H]2CC[C@H](O)CC2)c(C(=O)O)s1` [Compound 1, 5-(3,3-DIMETHYL-BUT-1-YNYL)-3-[(TRANS-4-HYDROXY-CYCLOHEXYL)-(TRANS-4-METHYL-CYCLOHEXANECARBONYL)-AMINO]-THIOPHENE-2-CARBOXYLIC ACID]: in data set [1], the TI entry is recorded as “++++++ (++++++: >6000)”. The microsome stability profile entry in data set [2] is reported as “better”. For the same molecule, in the data set on CYP3A4, the “induction profile in human hepatocytes” value was “better”. As to `CC(C)(C)C#Cc1cc(N(C(=O)[C@H]2CC[C@H](C)CC2)[C@H]2CC[C@H](n3cncn3)CC2)c(C(=O)O)s1` [Compound 4, 5-(3,3-DIMETHYL-BUT-1-YNYL)-3-[(TRANS-4-METHYL-CYCLOHEXANECARBONYL)-(TRANS-4-[1,2,4]TRIAZOL-1-YL-CYCLOHEXYL)-AMINO]-THIOPHENE-2-CARBOXYLIC ACID], the TI entry in data set [1] was “++++ (++++: 2000-4000)”. As to `CC1CCC(C(=O)N(c2cc(-c3ccccc3)sc2C(=O)O)C2CCC(O)CC2)CC1` (stereo not shown) [B, reference compound], the TI result in data set [1] is given as “++ (++: 100-1000)”.
